Laboratory results from article PMC5613053 (Investigational New Drugs, 2017).
Like-named read-outs stand apart in the source and are kept apart here.

Tests used:
[1] = target: FLT3 (Homo sapiens, UniProt P36888); assay: biochemical; conditions: read-out: Inhibition of kinase activity
Procedure: These assays were conducted according to the manufacturer’s instructions. […] TK-ELISA and MSA assays were used to conduct IC50 studies for FLT3, LTK, AXL, and c-KIT; the HTRF® KinEASE™-TK assay (Sceti Medical Labo, Tokyo, Japan) was performed according to the manufacturer’s protocol to assess the IC50 value of echinoderm microtubule-associated protein-like 4-ALK (EML4-ALK; three individual experiments for each kinase).

[2] = target: T1, LTK (Homo sapiens, UniProt P29376); assay: Kinase inhibitory assay (TK-ELISA / off-chip MSA); assay type: biochemical
T1 construct: purchased Carna Biosciences, Inc

[3] = target: T2, c-KIT (Homo sapiens, UniProt P10721); assay: Kinase inhibitory assay (TK-ELISA / off-chip MSA); assay type: biochemical
T2 construct: purchased Carna Biosciences, Inc

[4] = target: T3, ALK (Homo sapiens, UniProt Q9UM73); assay: Tyrosine kinase panel (off-chip MSA); assay type: biochemical; conditions: 1 nM; single experiment
T3 construct: purchased Carna Biosciences, Inc
Procedure: (§1) Inhibitory assay for the panel of tyrosine kinases was conducted using off-chip MSA. Percentage inhibitions were determined in a single experiment

[5] = target: T4, MER (Homo sapiens, UniProt Q12866); assay: Tyrosine kinase panel (off-chip MSA); assay type: biochemical; conditions: 5 nM; single experiment
T4 construct: purchased Carna Biosciences, Inc
Procedure: as §1

[6] = target: T5, RET (Homo sapiens, UniProt P07949); assay: Tyrosine kinase panel (off-chip MSA); assay type: biochemical; conditions: 5 nM; single experiment
T5 construct: purchased Carna Biosciences, Inc
Procedure: as §1

[7] = target: T6, ROS (Homo sapiens, UniProt P08922); assay: Tyrosine kinase panel (off-chip MSA); assay type: biochemical; conditions: 5 nM; single experiment
T6 construct: purchased Carna Biosciences, Inc
Procedure: as §1

[8] = target: T7, TRKA (Homo sapiens, UniProt P04629); assay: Tyrosine kinase panel (off-chip MSA); assay type: biochemical; conditions: 5 nM; single experiment
T7 construct: purchased Carna Biosciences, Inc
Procedure: as §1

[9] = test system: parental Ba/F3 cells in the presence of IL-3; assay: CellTiter-Glo cell viability, off-target; assay type: cell-based; conditions: Mus musculus, BaF3, 48 h; IL-3 present; 2 days of treatment; off-target inhibition; read-out: Cell growth inhibition IC50
Procedure: A detailed protocol is provided in the online resource.
The assay was performed in either triplicate or quadruplicate. […] The geometric mean was calculated from three individual experiments.

[10] = Pharmacokinetics in MV4–11 xenografted nude mice (plasma and tumor); assay type: in vivo; conditions: for AUC(0-t) / Cmax / Tmax: nude, mouse; for AUC(0-t): read-out: AUCt, plasma concentration; for Tmax: read-out: Time of maximal plasma concentration
Procedure: Tumor samples were also collected from each mouse and tumor weight was measured.

[11] = test system: MV4–11 tumors; assay: MV4–11 subcutaneous xenograft antitumor activity; assay type: in vivo, mice; conditions: 28 days; for Mice with complete tumor regression: n = 6
Procedure: Once tumor growth had been confirmed, mice xenografted with MV4–11 cells were monitored for 28 days; mice xenografted with Ba/F3 cells expressing FLT3 mutations were monitored for 7 days. Tumor diameter was measured using a caliper, and tumor volume was determined by calculating the volume of an ellipsoid using the formula: length × width^2 × 0.5. Body weight was measured using a standard balance. Data are expressed as mean ± SEM from n = 6 mice/group (MV4–11) and n = 5 mice/group (Ba/F3).
After tumor establishment, mice were divided into groups such that the mean tumor volume was approximately equal in each group.

[12] = test system: MV4–11-luc cells; assay: Intra-bone marrow transplantation (IBMT) model; assay type: in vivo, mice
Procedure: In the intra-bone marrow transplantation (IBMT) model, MV4–11-luc cells (1 × 10^6 cells/mouse) were injected into the bone marrow of the left tibia of female NOD-SCID mice (day 0) following the protocol detailed by Lee et al.. Tumor growth was monitored by bioluminescent imaging of the whole body with an IVIS Spectrum (PerkinElmer, Waltham, MA). […] Tumor growth was monitored once a week during the dosing period and then every other week until day 100. Survival was also monitored daily until day 168.

T1 sequence (P29376 17-864): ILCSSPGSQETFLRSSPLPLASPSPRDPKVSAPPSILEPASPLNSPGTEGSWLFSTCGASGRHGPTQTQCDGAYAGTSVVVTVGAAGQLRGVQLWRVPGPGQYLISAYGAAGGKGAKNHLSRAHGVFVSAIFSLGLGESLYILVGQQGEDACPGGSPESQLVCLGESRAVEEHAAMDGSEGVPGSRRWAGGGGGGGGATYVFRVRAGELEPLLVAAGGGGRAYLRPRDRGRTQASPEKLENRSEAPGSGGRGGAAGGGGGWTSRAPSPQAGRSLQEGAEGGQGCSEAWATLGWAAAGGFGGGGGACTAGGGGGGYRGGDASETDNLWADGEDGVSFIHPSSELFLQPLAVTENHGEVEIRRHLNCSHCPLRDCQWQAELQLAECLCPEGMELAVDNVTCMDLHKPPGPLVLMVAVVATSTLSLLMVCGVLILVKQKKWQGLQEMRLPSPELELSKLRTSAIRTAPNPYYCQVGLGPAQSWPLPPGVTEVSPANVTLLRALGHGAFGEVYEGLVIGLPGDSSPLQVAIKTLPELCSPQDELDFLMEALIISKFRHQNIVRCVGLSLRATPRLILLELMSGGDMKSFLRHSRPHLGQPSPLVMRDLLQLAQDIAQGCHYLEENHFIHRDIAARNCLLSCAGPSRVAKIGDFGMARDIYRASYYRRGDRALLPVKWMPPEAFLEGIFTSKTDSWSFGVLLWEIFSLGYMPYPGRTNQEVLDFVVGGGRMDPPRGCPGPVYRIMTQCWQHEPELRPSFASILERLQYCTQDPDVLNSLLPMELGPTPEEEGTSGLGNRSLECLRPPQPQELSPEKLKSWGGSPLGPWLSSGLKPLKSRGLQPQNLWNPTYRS
T4 sequence (Q12866 21-999): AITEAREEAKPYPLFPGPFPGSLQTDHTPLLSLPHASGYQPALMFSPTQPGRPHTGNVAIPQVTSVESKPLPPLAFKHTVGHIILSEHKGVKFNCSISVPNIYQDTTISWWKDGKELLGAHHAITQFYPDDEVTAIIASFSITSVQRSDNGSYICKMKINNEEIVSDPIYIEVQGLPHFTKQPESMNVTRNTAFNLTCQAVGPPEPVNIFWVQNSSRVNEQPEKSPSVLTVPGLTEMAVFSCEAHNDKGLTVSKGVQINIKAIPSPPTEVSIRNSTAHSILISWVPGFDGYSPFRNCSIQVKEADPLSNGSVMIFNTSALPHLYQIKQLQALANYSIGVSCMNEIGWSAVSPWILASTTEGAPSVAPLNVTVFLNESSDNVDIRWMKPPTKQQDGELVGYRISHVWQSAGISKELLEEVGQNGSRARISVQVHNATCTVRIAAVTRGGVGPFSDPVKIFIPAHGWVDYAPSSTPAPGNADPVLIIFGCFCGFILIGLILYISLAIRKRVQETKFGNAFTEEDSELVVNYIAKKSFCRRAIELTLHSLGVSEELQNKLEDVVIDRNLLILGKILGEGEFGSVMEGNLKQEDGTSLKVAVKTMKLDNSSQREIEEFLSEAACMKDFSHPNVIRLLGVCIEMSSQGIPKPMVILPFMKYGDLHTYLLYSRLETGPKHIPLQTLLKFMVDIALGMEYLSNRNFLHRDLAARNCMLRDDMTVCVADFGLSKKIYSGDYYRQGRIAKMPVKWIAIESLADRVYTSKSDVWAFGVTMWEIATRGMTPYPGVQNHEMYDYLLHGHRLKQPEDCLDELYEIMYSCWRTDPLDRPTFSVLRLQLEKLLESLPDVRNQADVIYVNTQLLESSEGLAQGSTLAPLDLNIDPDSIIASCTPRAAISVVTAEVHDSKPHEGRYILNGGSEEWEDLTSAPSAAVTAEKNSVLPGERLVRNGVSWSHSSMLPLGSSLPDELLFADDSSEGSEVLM
T7 sequence (P04629 33-796): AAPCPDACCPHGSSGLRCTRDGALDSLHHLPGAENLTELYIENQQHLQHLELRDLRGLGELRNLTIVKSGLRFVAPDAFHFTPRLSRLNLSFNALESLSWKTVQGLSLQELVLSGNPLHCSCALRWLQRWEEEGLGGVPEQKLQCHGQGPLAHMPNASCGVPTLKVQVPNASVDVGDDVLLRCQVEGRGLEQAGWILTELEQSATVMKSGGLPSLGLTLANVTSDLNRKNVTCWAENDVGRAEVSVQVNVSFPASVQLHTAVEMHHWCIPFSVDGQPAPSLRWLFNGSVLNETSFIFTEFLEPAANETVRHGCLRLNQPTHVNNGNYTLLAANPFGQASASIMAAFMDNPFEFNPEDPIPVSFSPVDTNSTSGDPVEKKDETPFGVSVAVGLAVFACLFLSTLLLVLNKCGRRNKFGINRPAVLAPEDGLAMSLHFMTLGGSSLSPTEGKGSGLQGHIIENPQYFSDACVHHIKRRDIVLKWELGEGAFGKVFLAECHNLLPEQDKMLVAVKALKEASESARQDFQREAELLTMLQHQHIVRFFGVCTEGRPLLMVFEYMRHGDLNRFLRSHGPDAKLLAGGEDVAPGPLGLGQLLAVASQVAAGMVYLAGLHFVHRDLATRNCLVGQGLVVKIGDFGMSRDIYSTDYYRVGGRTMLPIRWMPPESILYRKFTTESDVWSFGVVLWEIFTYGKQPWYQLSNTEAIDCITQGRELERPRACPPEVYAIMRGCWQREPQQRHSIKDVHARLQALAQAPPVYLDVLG
Chain of FLT3 (P36888 27-993): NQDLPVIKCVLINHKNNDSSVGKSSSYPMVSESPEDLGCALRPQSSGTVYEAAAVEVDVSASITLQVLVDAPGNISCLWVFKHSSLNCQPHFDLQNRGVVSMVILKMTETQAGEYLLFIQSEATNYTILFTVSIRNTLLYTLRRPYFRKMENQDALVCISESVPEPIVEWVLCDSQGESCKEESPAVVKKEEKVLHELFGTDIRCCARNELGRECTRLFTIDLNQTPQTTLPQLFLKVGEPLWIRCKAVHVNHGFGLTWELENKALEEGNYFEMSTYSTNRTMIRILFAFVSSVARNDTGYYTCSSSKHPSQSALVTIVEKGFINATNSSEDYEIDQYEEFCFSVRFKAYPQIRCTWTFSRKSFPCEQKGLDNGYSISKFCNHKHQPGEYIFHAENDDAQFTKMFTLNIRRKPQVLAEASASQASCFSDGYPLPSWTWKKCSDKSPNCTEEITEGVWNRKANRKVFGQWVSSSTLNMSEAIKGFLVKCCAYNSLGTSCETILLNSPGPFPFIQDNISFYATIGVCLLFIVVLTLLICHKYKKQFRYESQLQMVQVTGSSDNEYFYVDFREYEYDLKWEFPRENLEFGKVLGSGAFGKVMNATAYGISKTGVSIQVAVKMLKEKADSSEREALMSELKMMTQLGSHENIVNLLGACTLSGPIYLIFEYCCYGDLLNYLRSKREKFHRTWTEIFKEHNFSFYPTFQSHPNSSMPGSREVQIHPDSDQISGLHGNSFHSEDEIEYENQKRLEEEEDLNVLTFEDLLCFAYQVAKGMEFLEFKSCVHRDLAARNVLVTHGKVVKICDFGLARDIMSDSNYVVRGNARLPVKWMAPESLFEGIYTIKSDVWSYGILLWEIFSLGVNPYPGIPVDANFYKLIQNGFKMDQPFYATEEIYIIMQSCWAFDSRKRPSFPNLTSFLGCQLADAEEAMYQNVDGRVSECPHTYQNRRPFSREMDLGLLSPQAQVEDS
T5 sequence (P07949 29-1114): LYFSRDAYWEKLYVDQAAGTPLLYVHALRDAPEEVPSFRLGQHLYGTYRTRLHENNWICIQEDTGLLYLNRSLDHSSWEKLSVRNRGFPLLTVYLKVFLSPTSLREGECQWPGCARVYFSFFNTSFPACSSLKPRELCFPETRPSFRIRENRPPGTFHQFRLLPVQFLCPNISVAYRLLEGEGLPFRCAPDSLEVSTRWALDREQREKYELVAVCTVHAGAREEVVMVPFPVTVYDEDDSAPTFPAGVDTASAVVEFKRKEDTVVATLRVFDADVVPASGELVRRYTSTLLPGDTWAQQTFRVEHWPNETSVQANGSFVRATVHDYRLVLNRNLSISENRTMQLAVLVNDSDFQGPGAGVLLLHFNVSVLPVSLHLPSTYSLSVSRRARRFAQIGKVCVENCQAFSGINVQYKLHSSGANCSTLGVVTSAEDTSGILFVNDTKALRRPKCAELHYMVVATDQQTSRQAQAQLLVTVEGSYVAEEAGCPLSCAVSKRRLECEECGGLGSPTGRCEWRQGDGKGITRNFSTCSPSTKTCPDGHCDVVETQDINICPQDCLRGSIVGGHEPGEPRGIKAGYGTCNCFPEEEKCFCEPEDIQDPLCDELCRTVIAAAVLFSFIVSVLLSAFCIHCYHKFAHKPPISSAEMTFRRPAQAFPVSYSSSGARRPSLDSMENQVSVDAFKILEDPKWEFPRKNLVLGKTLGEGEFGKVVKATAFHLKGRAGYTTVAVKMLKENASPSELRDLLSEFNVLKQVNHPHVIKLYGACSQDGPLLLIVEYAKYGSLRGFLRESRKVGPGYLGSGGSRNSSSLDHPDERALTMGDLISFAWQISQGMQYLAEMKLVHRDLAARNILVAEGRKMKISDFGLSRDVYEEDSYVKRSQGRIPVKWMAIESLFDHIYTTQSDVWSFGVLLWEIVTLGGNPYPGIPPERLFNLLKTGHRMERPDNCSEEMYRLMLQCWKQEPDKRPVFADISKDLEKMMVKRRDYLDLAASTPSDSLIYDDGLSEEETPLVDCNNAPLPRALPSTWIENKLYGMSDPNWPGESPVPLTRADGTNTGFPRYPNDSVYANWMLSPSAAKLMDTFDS

Structure (SMILES): CCc1nc(C(N)=O)c(Nc2ccc(N3CCC(N4CCN(C)CC4)CC3)c(OC)c2)nc1NC1CCOCC1 [gilteritinib]
- inhibition at 0.001 µM [1]: > 50%
- IC50 [2]: 0.35 nM
- inhibition at 0.001 µM ([2]; 1 nM, single experiment): > 50%
- IC50 [3]: 230 nM
- inhibition at 0.001 µM [4]: > 50%
- inhibition at 0.005 µM [5]: > 50%
- inhibition at 0.005 µM [6]: > 50%
- inhibition at 0.005 µM [7]: > 50%
- inhibition at 0.005 µM [8]: > 50%
- IC50 [9]: 420 nM
- AUC(0-t) ([10]; plasma, single oral 1 mg/kg): 25.2 ng·h/mL
- Cmax ([10]; plasma, single oral 1 mg/kg, read-out: Cmax, plasma concentration): 6.56 ng/mL
- Tmax ([10]; plasma, single oral 1 mg/kg): 2 h
- AUC(0-t) ([10]; plasma, single oral 6 mg/kg): 269 ng·h/mL
- Cmax ([10]; plasma, single oral 6 mg/kg, read-out: Cmax, plasma concentration): 45.9 ng/mL
- Tmax ([10]; plasma, single oral 6 mg/kg): 2 h
- AUC(0-t) ([10]; plasma, single oral 10 mg/kg): 493 ng·h/mL
- Cmax ([10]; plasma, single oral 10 mg/kg, read-out: Cmax, plasma concentration): 83 ng/mL
- Tmax ([10]; plasma, single oral 10 mg/kg): 2 h
- Cmax ([10]; tumor, single oral 1 mg/kg, read-out: Cmax, intratumor concentration): 90.6 ng/g
- Cmax ([10]; tumor, single oral 6 mg/kg, read-out: Cmax, intratumor concentration): 772 ng/g
- Cmax ([10]; tumor, single oral 10 mg/kg, read-out: Cmax, intratumor concentration): 1120 ng/g
- Concentration in tumors compared with plasma ([10]; single oral 1, 6, 10 mg/kg, each time point): higher than that in plasma at each time point
- AUCt, intratumor concentration ([10]; tumor, single oral 1 mg/kg): 1186 ng·h/g
- Time of maximal intratumor concentration ([10]; tumor, single oral 1 mg/kg): 4 h
- AUCt, intratumor concentration ([10]; tumor, single oral 6 mg/kg): 12880 ng·h/g
- Time of maximal intratumor concentration ([10]; tumor, single oral 6 mg/kg): 8 h
- AUCt, intratumor concentration ([10]; tumor, single oral 10 mg/kg): 17330 ng·h/g
- Time of maximal intratumor concentration ([10]; tumor, single oral 10 mg/kg): 8 h
- Growth inhibition of MV4–11 tumors ([11]; 1 mg/kg/day oral once daily): 63%
- Growth inhibition of MV4–11 tumors ([11]; 3 mg/kg/day oral once daily): 80%
- Tumor regression ([11]; 6 mg/kg/day oral once daily): 93%
- Mice with complete tumor regression ([11]; 6 mg/kg/day): Four of the six mice
- Tumor regression ([11]; 10 mg/kg/day oral once daily): 100%
- Mice with complete tumor regression ([11]; 10 mg/kg/day): all six mice
- Survival ([12]; 30 mg/kg once daily day 15–70, monitored until day 168, n = 10): all treated mice survived to day 168
- MV4–11 cell infiltration ([12]; 30 mg/kg once daily, whole-body imaging): no evidence of cell infiltration
